According to patent US20250154525A1, “PLANT VIRUS MOVEMENT PROTEINS AND METHODS OF USING SAME” (Molecular Transfer, Inc., priority 2016, published 2025):

tested on: HuVec Cells; assay: GFP plasmid transfection with DOTMA/DOPE plus plant virus movement protein derived peptides (Example 2); type: cell-based; details: Transfection Agent 1 μl, 42 hours
Experimental: (§1) Cells were plated to so that on the day of transfection the cells were 70% confluent in 96 well tissue culture plates. A DOMTA/DOPE Lipid solution (1:1 molar ratio) at 2 mg/mL in water were mixed with an equal volume of plant virus movement protein derived peptides that had the nucleic acid binding moiety RRRRRRRRRRRR (SEQ ID NO:109) or KKKKKKKKKKKKKKKK (SEQ ID NO: 102) covalently linked to the N-terminus, or C-terminus of each peptide during peptide synthesis. Peptides were at 2 mg/mL in water. The DOTMA/DOPE and the plant virus movement peptide solution the was diluted 1 to 1 (v/v) in water. DOMTA/DOPE/PEPTIDE solutions were added to 0.1 mL of a plasmid DNA solution (EF1Alpha eGFP plasmid) at 10 μg/mL in OptiMEM.
(§2) All solutions were at room temperature. A volume of 0.2 mL of a 10 μg/mL solution of DNA was aliquoted into each well of a non-tissue cultured treated plate. 1-6 μL of transfection reagents were added to DNA solutions respectively. The transfection reagent and DNA solution was mixed by pipetting up and down twice. Transfection complexes were formed for 10 minutes. After 10 minutes, 0.01 or 0.02 mL of the transfection complex was added to cells. HuVEC, HeLa, human adult keratinocytes, human primary adult fibroblast, and A549 cells all respectively received 0.01 mL of the transfection complex. Human skeletal muscle cells, mouse C2C12 cells, and Jurkat, cells received 0.02 mL of the transfection complex. Cells were incubated for 42 hours at 37° C. at 5% CO2. Plates were read on a fluorescent plate reader. Cells were also examined visually under a microscope to assess the extent of transfection (in terms of the percent of cells transfected) with a fluorescent microscope. Other modes of analysis, for example quantification with B-galactosidase or luciferase reports plasmids can also be used.

Substance | Relative Fluorescence of Transfection of HuVEC Cells [Rf]
541 (RRRRRRRRRRRRGKWERKPIRCAS) [compound 541] | 27405
109 (RRRRRRRRRRRR) [compound 109] | 24603
544 (GVKRSYGAARGDDRRRPNVVAPYKAWRRRRRRRRRRRR) [compound 544] | 25788

same assay, conditions: Transfection Agent 1.5 μl, 42 hours

Substance | Relative Fluorescence of Transfection of HuVEC Cells [Rf]
541 (RRRRRRRRRRRRGKWERKPIRCAS) [compound 541] | 46446
109 (RRRRRRRRRRRR) [compound 109] | 25735
544 (GVKRSYGAARGDDRRRPNVVAPYKAWRRRRRRRRRRRR) [compound 544] | 28622

same assay, conditions: Transfection Agent 2 μl, 42 hours

Substance | Relative Fluorescence of Transfection of HuVEC Cells
541 (RRRRRRRRRRRRGKWERKPIRCAS) [compound 541] | OVER
109 (RRRRRRRRRRRR) [compound 109] | 25421 Rf
544 (GVKRSYGAARGDDRRRPNVVAPYKAWRRRRRRRRRRRR) [compound 544] | 31245 Rf

same assay, conditions: Transfection Agent 3 μl, 42 hours

Substance | Relative Fluorescence of Transfection of HuVEC Cells [Rf]
541 (RRRRRRRRRRRRGKWERKPIRCAS) [compound 541] | 40401
109 (RRRRRRRRRRRR) [compound 109] | 26641
544 (GVKRSYGAARGDDRRRPNVVAPYKAWRRRRRRRRRRRR) [compound 544] | 34718

same assay, conditions: Transfection Agent 4 μl, 42 hours

Substance | Relative Fluorescence of Transfection of HuVEC Cells [Rf]
541 (RRRRRRRRRRRRGKWERKPIRCAS) [compound 541] | 31568
109 (RRRRRRRRRRRR) [compound 109] | 26529
544 (GVKRSYGAARGDDRRRPNVVAPYKAWRRRRRRRRRRRR) [compound 544] | 31159

same assay, conditions: Transfection Agent 6 μl, 42 hours

Substance | Relative Fluorescence of Transfection of HuVEC Cells [Rf]
541 (RRRRRRRRRRRRGKWERKPIRCAS) [compound 541] | 28125
109 (RRRRRRRRRRRR) [compound 109] | 25907
544 (GVKRSYGAARGDDRRRPNVVAPYKAWRRRRRRRRRRRR) [compound 544] | 28639

tested on: HeLa Cells; assay: as above; type: cell-based; details: 1-6 μL of transfection reagents; 2 µL transfection reagent
Experimental: as §1, §2

Substance | Relative Fluorescence of Transfection of Hela Cells
541 (RRRRRRRRRRRRGKWERKPIRCAS) [compound 541] | 36476
109 (RRRRRRRRRRRR) [compound 109] | 5578
544 (GVKRSYGAARGDDRRRPNVVAPYKAWRRRRRRRRRRRR) [compound 544] | 19151

same assay, conditions: 1-6 μL of transfection reagents; 5 µL transfection reagent

Substance | Relative Fluorescence of Transfection of Hela Cells
541 (RRRRRRRRRRRRGKWERKPIRCAS) [compound 541] | 20473
109 (RRRRRRRRRRRR) [compound 109] | 8007
544 (GVKRSYGAARGDDRRRPNVVAPYKAWRRRRRRRRRRRR) [compound 544] | 12759

same assay, conditions: value column 1 of 6, head not given; 1-6 μL of transfection reagents; 1 µL transfection reagent

Substance | Relative Fluorescence of Transfection of Hela Cells
541 (RRRRRRRRRRRRGKWERKPIRCAS) [compound 541] | 17145
109 (RRRRRRRRRRRR) [compound 109] | 4157
544 (GVKRSYGAARGDDRRRPNVVAPYKAWRRRRRRRRRRRR) [compound 544] | 10683

same assay, conditions: value column 3 of 6, head not given; 1-6 μL of transfection reagents; 3 µL transfection reagent

Substance | Relative Fluorescence of Transfection of Hela Cells
541 (RRRRRRRRRRRRGKWERKPIRCAS) [compound 541] | 37105
109 (RRRRRRRRRRRR) [compound 109] | 6606
544 (GVKRSYGAARGDDRRRPNVVAPYKAWRRRRRRRRRRRR) [compound 544] | 19877

same assay, conditions: value column 4 of 6, head not given; 1-6 μL of transfection reagents; 4 µL transfection reagent

Substance | Relative Fluorescence of Transfection of Hela Cells
541 (RRRRRRRRRRRRGKWERKPIRCAS) [compound 541] | 23644
109 (RRRRRRRRRRRR) [compound 109] | 8520
544 (GVKRSYGAARGDDRRRPNVVAPYKAWRRRRRRRRRRRR) [compound 544] | 16908

tested on: Human Primary Fibroblast Cells; assay: as above; type: cell-based; details: Transfection Agent 1 μl, 42 hours
Experimental: as §1, §2

Substance | Relative Fluorescence of Transfection of Human Primary Fibroblast Cells [Rf]
541 (RRRRRRRRRRRRGKWERKPIRCAS) [compound 541] | 35030
109 (RRRRRRRRRRRR) [compound 109] | 28368
544 (GVKRSYGAARGDDRRRPNVVAPYKAWRRRRRRRRRRRR) [compound 544] | 31368

same assay, conditions: Transfection Agent 1.5 μl, 42 hours

Substance | Relative Fluorescence of Transfection of Human Primary Fibroblast Cells [Rf]
541 (RRRRRRRRRRRRGKWERKPIRCAS) [compound 541] | 44894
109 (RRRRRRRRRRRR) [compound 109] | 30373
544 (GVKRSYGAARGDDRRRPNVVAPYKAWRRRRRRRRRRRR) [compound 544] | 39311

same assay, conditions: Transfection Agent 2 μl, 42 hours

Substance | Relative Fluorescence of Transfection of Human Primary Fibroblast Cells [Rf]
541 (RRRRRRRRRRRRGKWERKPIRCAS) [compound 541] | 42097
109 (RRRRRRRRRRRR) [compound 109] | 29858
544 (GVKRSYGAARGDDRRRPNVVAPYKAWRRRRRRRRRRRR) [compound 544] | 37634

same assay, conditions: Transfection Agent 3 μl, 42 hours

Substance | Relative Fluorescence of Transfection of Human Primary Fibroblast Cells [Rf]
541 (RRRRRRRRRRRRGKWERKPIRCAS) [compound 541] | 31837
109 (RRRRRRRRRRRR) [compound 109] | 29895
544 (GVKRSYGAARGDDRRRPNVVAPYKAWRRRRRRRRRRRR) [compound 544] | 32892

same assay, conditions: Transfection Agent 4 μl, 42 hours

Substance | Relative Fluorescence of Transfection of Human Primary Fibroblast Cells [Rf]
541 (RRRRRRRRRRRRGKWERKPIRCAS) [compound 541] | 29537
109 (RRRRRRRRRRRR) [compound 109] | 30941
544 (GVKRSYGAARGDDRRRPNVVAPYKAWRRRRRRRRRRRR) [compound 544] | 31428

same assay, conditions: Transfection Agent 6 μl, 42 hours

Substance | Relative Fluorescence of Transfection of Human Primary Fibroblast Cells [Rf]
541 (RRRRRRRRRRRRGKWERKPIRCAS) [compound 541] | 28921
109 (RRRRRRRRRRRR) [compound 109] | 29386
544 (GVKRSYGAARGDDRRRPNVVAPYKAWRRRRRRRRRRRR) [compound 544] | 28367
